# From patent US20170190671A1, “BIS(ARYL)CATECHOL DERIVATIVES AS HERBICIDES” (E I DU PONT DE NEMOURS AND COMPANY, priority 2014, published 2017)
# Key:
# Assay type in all cases: in vivo
# [1] = tested on: Italian ryegrass (Lolium multiflorum); test: Test A preemergence
# From the text: (§1) Seeds of plant species selected from barnyardgrass (Echinochloa crus-galli), kochia (Kochia scoparia), ragweed (common ragweed, Ambrosia elatior), Italian ryegrass (Lolium multiflorum), large (Lg) crabgrass (Digitaria sanguinalis), giant foxtail (Setaria faberii), morningglory (Ipomoea spp.), pigweed (Amaranthus retroflexus), velvetleaf (Abutilon theophrasti), wheat (Triticum aestivum), and corn (Zea mays) were planted into a blend of loam soil and sand and treated preemergence with a directed soil spray using test chemicals formulated in a non-phytotoxic solvent mixture which included a surfactant.
# (§2) At the same time, plants selected from these crop and weed species and also blackgrass (Alopecurus myosuroides), and galium (catchweed bedstraw, Galium aparine) were planted in pots containing the same blend of loam soil and sand and treated with postemergence applications of test chemicals formulated in the same manner. Plants ranged in height from 2 to 10 cm and were in the one- to two-leaf stage for the postemergence treatment. Treated plants and untreated controls were maintained in a greenhouse for approximately 10 days, after which time all treated plants were compared to untreated controls and visually evaluated for injury. Plant response ratings, summarized in Table A, are based on a 0 to 100 scale where 0 is no effect and 100 is complete control. A dash (-) response means no test result.
# [2] = tested on: barnyardgrass (Echinochloa crus-galli); test: Test A preemergence
# From the text: as §1, §2
# [3] = tested on: giant foxtail (Setaria faberii); test: Test A preemergence
# From the text: as §1, §2
# kochia (Kochia scoparia) [4] = test: Test A preemergence
# From the text: as §1, §2
# [5] = tested on: pigweed (Amaranthus retroflexus); test: Test A preemergence
# From the text: as §1, §2
# [6] = tested on: ragweed (common ragweed, Ambrosia elatior); test: Test A preemergence
# From the text: as §1, §2
# [7] = tested on: Italian ryegrass (Lolium multiflorum); test: Test A postemergence; settings: 0 to 100 scale
# From the text: as §1, §2
# [8] = tested on: barnyardgrass (Echinochloa crus-galli); test: Test A postemergence; settings: 0 to 100 scale
# From the text: as §1, §2
# [9] = tested on: blackgrass (Alopecurus myosuroides); test: Test A postemergence; settings: 0 to 100 scale
# From the text: as §1, §2
# corn (Zea mays) = test: Test A postemergence; settings: 0 to 100 scale
# From the text: as §1, §2
# [10] = tested on: galium (catchweed bedstraw, Galium aparine); test: Test A postemergence; settings: 0 to 100 scale
# From the text: as §1, §2
# [11] = tested on: giant foxtail (Setaria faberii); test: Test A postemergence; settings: 0 to 100 scale
# From the text: as §1, §2
# kochia (Kochia scoparia) [12] = test: Test A postemergence; settings: 0 to 100 scale
# From the text: as §1, §2
# [13] = tested on: pigweed (Amaranthus retroflexus); test: Test A postemergence; settings: 0 to 100 scale
# From the text: as §1, §2
# [14] = tested on: ragweed (common ragweed, Ambrosia elatior); test: Test A postemergence; settings: 0 to 100 scale
# From the text: as §1, §2
# [15] = tested on: wheat (Triticum aestivum); test: Test A postemergence; settings: 0 to 100 scale
# From the text: as §1, §2
# [16] = 31 g ai/ha, 0 to 100 scale (0 no effect, 100 complete control)
compound,measurement,setting,value
FC(F)(F)c1cnc(Oc2c(Br)cccc2Oc2ncc(Cl)cn2)s1 [Compound 6],"Ryegrass, Italian plant response rating",[1]; [16],0
same,"Plant response rating, Ryegrass, Italian","[1]; 125 g ai/ha, 0 to 100 scale",20
same,Barnyardgrass plant response rating,[2]; [16],20
same,"Plant response rating, Barnyardgrass","[2]; 125 g ai/ha, 0 to 100 scale",70
same,"Foxtail, Giant plant response rating",[3]; [16],60
same,"Plant response rating, Foxtail, Giant","[3]; 125 g ai/ha, 0 to 100 scale",100
same,Kochia plant response rating,kochia (Kochia scoparia) [4]; [16],30
same,"Plant response rating, Kochia","kochia (Kochia scoparia) [4]; 125 g ai/ha, 0 to 100 scale",80
same,Pigweed plant response rating,[5]; [16],30
same,"Plant response rating, Pigweed","[5]; 125 g ai/ha, 0 to 100 scale",90
same,Ragweed plant response rating,[6]; [16],0
same,"Plant response rating, Ragweed","[6]; 125 g ai/ha, 0 to 100 scale",0
same,"Plant response rating, Ryegrass, Italian",[7]; 31 g ai/ha,0
same,"Plant response rating, Ryegrass, Italian",[7]; 125 g ai/ha,50
same,"Plant response rating, Barnyardgrass",[8]; 31 g ai/ha,10
same,"Plant response rating, Barnyardgrass",[8]; 125 g ai/ha,100
same,"Plant response rating, Blackgrass",[9]; 31 g ai/ha,10
same,"Plant response rating, Blackgrass",[9]; 125 g ai/ha,40
same,"Plant response rating, Corn",corn (Zea mays); 31 g ai/ha,0
same,"Plant response rating, Corn",corn (Zea mays); 125 g ai/ha,10
same,"Plant response rating, Galium",[10]; 31 g ai/ha,70
same,"Plant response rating, Galium",[10]; 125 g ai/ha,100
same,"Plant response rating, Foxtail, Giant",[11]; 31 g ai/ha,10
same,"Plant response rating, Foxtail, Giant",[11]; 125 g ai/ha,60
same,"Plant response rating, Kochia",kochia (Kochia scoparia) [12]; 31 g ai/ha,70
same,"Plant response rating, Kochia",kochia (Kochia scoparia) [12]; 125 g ai/ha,100
same,"Plant response rating, Pigweed",[13]; 31 g ai/ha,50
same,"Plant response rating, Pigweed",[13]; 125 g ai/ha,90
same,"Plant response rating, Ragweed",[14]; 31 g ai/ha,0
same,"Plant response rating, Ragweed",[14]; 125 g ai/ha,20
same,"Plant response rating, Wheat",[15]; 31 g ai/ha,0
same,"Plant response rating, Wheat",[15]; 125 g ai/ha,10
N#Cc1cccc(Oc2ncc(Br)cn2)c1Oc1cccnc1 [Compound 7],pest or weed control at 31 g/ha,"[1]; Lolium multiflorum, pre-emergence, 240 h, 31 g ai/ha, 0 to 100 scale (0 no effect, 100 complete control), read-out: Ryegrass, Italian plant response rating",0%
same,pest or weed control at 125 g/ha,"[1]; Lolium multiflorum, pre-emergence, 240 h, 125 g ai/ha, 0 to 100 scale, read-out: Plant response rating, Ryegrass, Italian",0%
same,pest or weed control at 31 g/ha,"[2]; Echinochloa crus-galli, pre-emergence, 240 h, 31 g ai/ha, 0 to 100 scale (0 no effect, 100 complete control), read-out: Barnyardgrass plant response rating",0%
same,pest or weed control at 125 g/ha,"[2]; Echinochloa crus-galli, pre-emergence, 240 h, 125 g ai/ha, 0 to 100 scale, read-out: Plant response rating, Barnyardgrass",0%
same,pest or weed control at 31 g/ha,"[3]; Setaria faberi, pre-emergence, 240 h, 31 g ai/ha, 0 to 100 scale (0 no effect, 100 complete control), read-out: Foxtail, Giant plant response rating",0%
same,pest or weed control at 125 g/ha,"[3]; Setaria faberi, pre-emergence, 240 h, 125 g ai/ha, 0 to 100 scale, read-out: Plant response rating, Foxtail, Giant",0%
same,pest or weed control at 31 g/ha,"kochia (Kochia scoparia) [4]; Bassia scoparia, pre-emergence, 240 h, 31 g ai/ha, 0 to 100 scale (0 no effect, 100 complete control), read-out: Kochia plant response rating",0%
same,pest or weed control at 125 g/ha,"kochia (Kochia scoparia) [4]; Bassia scoparia, pre-emergence, 240 h, 125 g ai/ha, 0 to 100 scale, read-out: Plant response rating, Kochia",0%
same,pest or weed control at 31 g/ha,"[5]; Amaranthus retroflexus, pre-emergence, 240 h, 31 g ai/ha, 0 to 100 scale (0 no effect, 100 complete control), read-out: Pigweed plant response rating",0%
same,pest or weed control at 125 g/ha,"[5]; Amaranthus retroflexus, pre-emergence, 240 h, 125 g ai/ha, 0 to 100 scale, read-out: Plant response rating, Pigweed",0%
same,pest or weed control at 31 g/ha,"[6]; Ambrosia artemisiifolia, pre-emergence, 240 h, 31 g ai/ha, 0 to 100 scale (0 no effect, 100 complete control), read-out: Ragweed plant response rating",0%
same,pest or weed control at 125 g/ha,"[6]; Ambrosia artemisiifolia, pre-emergence, 240 h, 125 g ai/ha, 0 to 100 scale, read-out: Plant response rating, Ragweed",0%
same,pest or weed control at 31 g/ha,"[7]; Lolium multiflorum, post-emergence, 240 h, 31 g ai/ha, read-out: Plant response rating, Ryegrass, Italian",0%
same,pest or weed control at 125 g/ha,"[7]; Lolium multiflorum, post-emergence, 240 h, 125 g ai/ha, read-out: Plant response rating, Ryegrass, Italian",0%
same,pest or weed control at 31 g/ha,"[8]; Echinochloa crus-galli, post-emergence, 240 h, 31 g ai/ha, read-out: Plant response rating, Barnyardgrass",0%
same,pest or weed control at 125 g/ha,"[8]; Echinochloa crus-galli, post-emergence, 240 h, 125 g ai/ha, read-out: Plant response rating, Barnyardgrass",0%
same,pest or weed control at 31 g/ha,"[9]; Alopecurus myosuroides, post-emergence, 240 h, 31 g ai/ha, read-out: Plant response rating, Blackgrass",0%
same,pest or weed control at 125 g/ha,"[9]; Alopecurus myosuroides, post-emergence, 240 h, 125 g ai/ha, read-out: Plant response rating, Blackgrass",0%
same,"Corn plant response rating (crop injury, 0 = no effect, 100 = complete kill) at 31 g/ha","corn (Zea mays); Zea mays, post-emergence, 240 h, 31 g ai/ha",0%
same,"Corn plant response rating (crop injury, 0 = no effect, 100 = complete kill) at 125 g/ha","corn (Zea mays); Zea mays, post-emergence, 240 h, 125 g ai/ha",10%
same,pest or weed control at 31 g/ha,"[10]; Galium, post-emergence, 240 h, 31 g ai/ha, read-out: Plant response rating, Galium",10%
same,pest or weed control at 125 g/ha,"[10]; Galium, post-emergence, 240 h, 125 g ai/ha, read-out: Plant response rating, Galium",10%
same,pest or weed control at 31 g/ha,"[11]; Setaria faberi, post-emergence, 240 h, 31 g ai/ha, read-out: Plant response rating, Foxtail, Giant",0%
same,pest or weed control at 125 g/ha,"[11]; Setaria faberi, post-emergence, 240 h, 125 g ai/ha, read-out: Plant response rating, Foxtail, Giant",0%
same,pest or weed control at 31 g/ha,"kochia (Kochia scoparia) [12]; Bassia scoparia, post-emergence, 240 h, 31 g ai/ha, read-out: Plant response rating, Kochia",0%
same,pest or weed control at 125 g/ha,"kochia (Kochia scoparia) [12]; Bassia scoparia, post-emergence, 240 h, 125 g ai/ha, read-out: Plant response rating, Kochia",10%
same,pest or weed control at 31 g/ha,"[13]; Amaranthus retroflexus, post-emergence, 240 h, 31 g ai/ha, read-out: Plant response rating, Pigweed",10%
same,pest or weed control at 125 g/ha,"[13]; Amaranthus retroflexus, post-emergence, 240 h, 125 g ai/ha, read-out: Plant response rating, Pigweed",20%
same,pest or weed control at 31 g/ha,"[14]; Ambrosia artemisiifolia, post-emergence, 240 h, 31 g ai/ha, read-out: Plant response rating, Ragweed",0%
same,pest or weed control at 125 g/ha,"[14]; Ambrosia artemisiifolia, post-emergence, 240 h, 125 g ai/ha, read-out: Plant response rating, Ragweed",0%
same,plant injury at 31 g/ha,"[15]; Triticum aestivum, post-emergence, 240 h, 31 g ai/ha, read-out: Plant response rating, Wheat",0%
same,plant injury at 125 g/ha,"[15]; Triticum aestivum, post-emergence, 240 h, 125 g ai/ha, read-out: Plant response rating, Wheat",0%
